# Experimental data: patent US20260174677A1, “METHODS OF TREATING INSULIN RESISTANCE AND ASSOCIATED DISORDERS” (The University of Melboune, priority 2022, published 2026)
# “Also recorded” adds a separate entry of the source.
# Tests used:
# [1] = Intranasal PZ6005 in obese mice: I.P. GTT, ITT and fasting glucose; type: in vivo, mouse
# Description: Metabolic measurements were undertaken in the Melbourne Mouse Metabolic Phenotyping Platform (The University of Melbourne, Australia). Glucose tolerance tests were performed on 6 h fasted conscious mice respectively by injecting D-glucose (2 mg/g of lean body mass and 1 mg/g lean mass for db/db and HFHS+STZ mice) into the peritoneal cavity and measuring glucose in tail blood immediately before and at 15, 30, 45, 60, 90 and 120 min after injection using an Accu-Check glucometer (Roche, Germany). The areas under glucose excursion curves were determined and expressed as mmol/1×min. Fasted (12 h fast) plasma insulin or glucose levels were determined using a Rat/Mouse Insulin ELISA (EZRMI-13K, Merck Millipore, CA) or an Accu-Check glucometer respectively. The HOMA-IR was calculated using the equation [(glucose×insulin)/405]. Adiposity was measured using TD-NMR minispec (Bruker Optics Inc., Billerica, MA).
# Conscious mice were restrained by scruffing and inverted parallel to the floor with the chin at ˜180-degree angle with the neck. Using a 10 μL tip, a pipettor was loaded with 5 μl of vehicle (ddH2O) or fluorosamine (1 mg/animal in 20 μl or 5 mg/animal in 20 μl). The tip of the filled pipettor was placed near the left nostril at a 45-degree angle, and the drug was ejected to form a small 5 μl droplet at tip for the mouse to inhale. Immediately after the mouse inhaled the first droplet the remaining solution was ejected to form another small droplet for the mouse to inhale through the same nostril. The mouse was held in this position for 15 seconds before the procedure was repeated in the right nostril. The mouse was returned to the cage for 2 minutes and the process was repeated so that each mouse received four droplets of 5 μl each, delivering a total of 20 μl of solution. All drugs were administered delivered approximately 1 h before lights off […].
# Obese mice intranasally receiving either vehicle or PZ6005 (1 or 5 mg/animal/day) were subjected to I.P. GTT after 6 hrs fasting period and I.P. insulin tolerance test (ITT) after 4 hrs fasting period.
# CSPG-ECM = assay: I.C.V. fluorosamine in obese mice: WFA immunostaining of CSPG-ECM in brain areas; type: in vivo, mouse
# Description: For detection of aggrecan, GFP, HABP, parvalbumin, mCherry, versican, tenascin-C, HAPLN1, neurocan, phosphacan, brevican, WFA and WFA-FITC sections were incubated at room temperature for 1 h in blocking buffer (0.3% Triton X-100, 5% normal goat serum, Gibco, ThermoFisher, MA, 0.02% sodium azide) and then overnight at 4° C. in 1% blocking buffer containing either rabbit anti-aggrecan (1:1000, AB1031, Millipore, MA), chicken anti-GFP (1:2000; ab13970, Abcam, Cambridge, UK), Biotinylated HABP (1:100, 385911, Burlington, MA), sheep anti-parvalbumin (1:1000), in house), rabbit anti-dsRed (1:2000, 600-401-379, Rockland, PA), rabbit anti-versican (1:1000, AB1033, Millipore, MA), tenascin-C (1:500, M1-B4, Developmental Studies Hybridoma Bank, Iowa), HAPLN1 (1:500, 9/30/8-A-4, Developmental Studies Hybridoma Bank, Iowa), neurocan (1:300, 1F6-S, Developmental Studies Hybridoma Bank, Iowa), phophacan (1:300, 3F8, Developmental Studies Hybridoma Bank, Iowa), brevican (1:500, 610895, BD Transduction Laboratories), biotinylated WFA (1:2000, L1516; Sigma-Aldrich, MO), WFA-FITC (1:2000, FL-1351-2, Vector Laboratories, CA), rabbit anti PGP9.5 (1:1000, 14730-1-AP, Proteintech, IL), guinea pig anti AgRP (1:500, AS506, Antibodies Australia, Melbourne, AUS). […]
# All image quantification was performed in Image J (NIH) software (NIH, MA). […] To quantify area and intensity of the CSPG-ECM within each brain region (ARC, VMH or RSG cortex) images were thresholded and binarized to create a region of interest (ROI) mask of only the CSPG-ECM. For each brain area, CSPG-ECM ROI area (μm^2) and intensity (sum of all pixel intensities within the ROI) was calculated. […]
compound,measurement,setting,value
"CC(=O)NC1C(OC(C)=O)OC(COC(C)=O)[C@@H](F)C1OC(C)=O (stereo partly shown) [fluorosamine, per-O-acetylated-4-F-N-acetylglucosamine]",glucose clearance rate vs 1 mg treatment group and controls,"[1]; I.N. 5 mg, after 60 mins of I.P. glucose in GTT and after 0 mins of I.P. insulin",significantly higher glucose clearance rate
same,insulin sensitivity (ITT),"[1]; I.N. 1 or 5 mg/animal/day, obese mice",enhanced insulin sensitivity
same,glucose tolerance (glucose excursion in GTT and ITT),"[1]; I.N. 1 or 5 mg/animal/day, obese mice, vs control littermates",better glucose tolerance than control littermates
same,fasting (12 hrs) glucose level,[1]; both doses of intranasal treatment (1 or 5 mg/animal/day),Reduction
same,CSPG-ECM in other brain areas such as the RSG cortex,CSPG-ECM; I.C.V. daily for 10 days,did not reduce CSPG-ECM
same,"neurofibrosis (CSPG-ECM, WFA immunostaining) within the ARC",CSPG-ECM; I.C.V. daily for 10 days,significantly attenuated neurofibrosis within the ARC; also recorded: preferentially attenuates CSPG-ECM in the ARC
same,CSPG-ECM expression in the habenula,"CSPG-ECM; I.C.V., highest dose",only partially attenuated expression
